Test systems include NCI-H23 lung; SK-MEL-5 melanoma; SK-OV-3 ovarian; HOP-92 NSCLC; SR leukemia; TK-10 renal; UACC-257 melanoma; SW-620 colon; SNB-19 CNS; SK-MEL-2 melanoma; SF-268 CNS; HCC-2998 colon; HCT-116 colon; NCI-H226 lung; U251 CNS; NCI-H522 lung; M19-MEL melanoma; DLD-1 colon; K-562 leukemia; DMS 273 small cell lung.
Assay in all cases: inhibition of tumour cell growth, NCI panel, 48 h

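The compound was tested at five concentrations on cells cultured in 96-well plates, with a 48-hour exposure period. TGI: concentration producing complete growth inhibition.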

Turning to `CCN(CC)CCNC(=O)c1cc2cc(NC(=O)c3cc4cc([N+](=O)[O-])ccc4[nH]3)ccc2[nH]1`, the TGI in the assay on NCI-H23 lung is above 100 µM; with SK-MEL-5 melanoma, above 100 µM; in the assay on SK-OV-3 ovarian, 71.4 µM; with HOP-92 NSCLC it was above 50.7 µM; in the assay on SR leukemia, above 100 µM; in the assay on TK-10 renal, 48.6 µM. Moreover, the TGI with UACC-257 melanoma is above 87.1 µM; in the assay on SW-620 colon, above 58 µM; in the assay on SNB-19 CNS, above 100 µM; with SK-MEL-2 melanoma it was above 100 µM; in the assay with SF-268 CNS, above 100 µM; in the assay with HCC-2998 colon, above 73.6 µM. For the same compound, the TGI in the assay on HCT-116 colon is above 100 µM; with NCI-H226 lung it was above 87.3 µM.
With `Nc1nc(SCCC/C=C/I)nc2c1ncn2C1OC(COP(=O)(O)O)C(O)C1O` (stereo not given), the TGI in the assay on NCI-H23 lung, in the assay with U251 CNS, in the assay on SK-MEL-5 melanoma, in the assay with NCI-H522 lung, with SK-OV-3 ovarian and in the assay on HOP-92 NSCLC was above 100 µM in each case. The TGI with SR leukemia, with M19-MEL melanoma, in the assay on TK-10 renal, with UACC-257 melanoma, in the assay on SW-620 colon and with SNB-19 CNS was above 100 µM in each case. Also, the TGI with SK-MEL-2 melanoma, with DLD-1 colon, in the assay on K-562 leukemia, with SF-268 CNS, in the assay with DMS 273 small cell lung and with HCC-2998 colon was above 100 µM each time. Moreover, the TGI in the assay on HCT-116 colon and in the assay on NCI-H226 lung was above 100 µM in each case.
For `CCCCCCCC/C=C\CCCCCCCCCCCC(=O)O`, the TGI with NCI-H23 lung was 80.8 µM; with U251 CNS it was 110 µM; in the assay on SK-MEL-5 melanoma, 57.5 µM; in the assay with NCI-H522 lung it was 40 µM; in the assay on SK-OV-3 ovarian, above 125 µM; in the assay on HOP-92 NSCLC, 101 µM. Further, the TGI with M19-MEL melanoma was 97.2 µM; in the assay with UACC-257 melanoma, above 125 µM; in the assay on SW-620 colon, 90.1 µM; in the assay on SNB-19 CNS it was above 64.5 µM; in the assay on SK-MEL-2 melanoma, 31.1 µM; with DLD-1 colon, above 125 µM. Moreover, the TGI was 47.4 µM in the assay on K-562 leukemia; above 125 µM in the assay with SF-268 CNS; 48.7 µM with DMS 273 small cell lung; above 85.8 µM with HCC-2998 colon; 60.9 µM in the assay with HCT-116 colon; 107 µM in the assay with NCI-H226 lung.
Regarding `CC1=C(Cl)C=CP(=O)(Oc2ccccc2)C1` (stereo not given), the TGI in the assay with NCI-H23 lung was above 100 µM; in the assay with U251 CNS, above 100 µM; in the assay with SK-MEL-5 melanoma, above 100 µM; in the assay on NCI-H522 lung, 29.9 µM; in the assay with HOP-92 NSCLC it was above 100 µM; in the assay with UACC-257 melanoma, above 100 µM. For the same compound, the TGI in the assay with SW-620 colon is above 100 µM; in the assay on SNB-19 CNS, above 100 µM; in the assay on SK-MEL-2 melanoma, above 100 µM; in the assay on K-562 leukemia, above 10 µM; with SF-268 CNS, above 100 µM; in the assay on DMS 273 small cell lung it was 75.9 µM. The TGI in the assay on HCC-2998 colon and in the assay on HCT-116 colon was above 100 µM in each case.
In the case of `N=c1nnc2ccc(Cl)cc2n1O`, the TGI with NCI-H23 lung, in the assay on U251 CNS, in the assay on SK-MEL-5 melanoma, in the assay with NCI-H522 lung, in the assay on SK-OV-3 ovarian and in the assay with SR leukemia was above 100 µM in each case. The TGI in the assay on TK-10 renal, in the assay on UACC-257 melanoma, in the assay with SW-620 colon, with SNB-19 CNS, in the assay with SK-MEL-2 melanoma and in the assay on K-562 leukemia was above 100 µM in each case. Moreover, the TGI in the assay with SF-268 CNS, in the assay on HCC-2998 colon, in the assay on HCT-116 colon and in the assay on NCI-H226 lung was above 100 µM throughout.
For the compound `Cc1ccc(NC(=O)CC2Sc3ccccc3NC2=O)cc1C` (stereo not given), the TGI with NCI-H23 lung was above 100 µM; with U251 CNS, above 100 µM; in the assay with SK-MEL-5 melanoma, above 100 µM; in the assay with NCI-H522 lung, above 100 µM; with SK-OV-3 ovarian, above 100 µM; in the assay on HOP-92 NSCLC it was 95.8 µM. Moreover, the TGI in the assay on SR leukemia, in the assay with M19-MEL melanoma, in the assay with TK-10 renal, with UACC-257 melanoma, with SW-620 colon and with SNB-19 CNS was above 100 µM each time. The TGI in the assay on SK-MEL-2 melanoma, with DLD-1 colon, in the assay on K-562 leukemia, in the assay on SF-268 CNS, with DMS 273 small cell lung and in the assay on HCC-2998 colon was above 100 µM each time. Besides, the TGI in the assay on HCT-116 colon and in the assay on NCI-H226 lung was above 100 µM each time.
For `COc1ccc(/C=c2\sc3n(c2=O)CCN=3)cc1`, the TGI with NCI-H23 lung is above 100 µM; in the assay on U251 CNS, above 100 µM; with SK-MEL-5 melanoma it was above 100 µM; in the assay with NCI-H522 lung it was above 100 µM; with SK-OV-3 ovarian it was above 100 µM; in the assay on HOP-92 NSCLC, 95.8 µM. Moreover, the TGI in the assay on SR leukemia, in the assay with M19-MEL melanoma, in the assay with TK-10 renal, in the assay with UACC-257 melanoma, in the assay with SW-620 colon and in the assay with SK-MEL-2 melanoma was above 100 µM each time. Also, the TGI in the assay on DLD-1 colon, with K-562 leukemia, in the assay with HCC-2998 colon and in the assay with HCT-116 colon was above 100 µM in each case.
As for `Nc1c(S(=O)(=O)O)cc2cc(S(=O)(=O)O)ccc2c1N=Nc1ccc(-c2ccc(N=Nc3c(N)c(S(=O)(=O)O)cc4cc(S(=O)(=O)O)ccc34)c(S(=O)(=O)O)c2)cc1`, the TGI in the assay on NCI-H23 lung, in the assay on U251 CNS, in the assay on SK-MEL-5 melanoma, with NCI-H522 lung, in the assay with SK-OV-3 ovarian and in the assay with HOP-92 NSCLC was above 100 µM each time. Moreover, the TGI with M19-MEL melanoma, with UACC-257 melanoma, with SW-620 colon, in the assay with SNB-19 CNS, with SK-MEL-2 melanoma and in the assay with DLD-1 colon was above 100 µM throughout. Also, the TGI in the assay with K-562 leukemia, with SF-268 CNS, in the assay with DMS 273 small cell lung, in the assay on HCC-2998 colon, with HCT-116 colon and in the assay on NCI-H226 lung was above 100 µM in each case.
In the case of `N#C/C(=C1/Sc2c(nc[nH]c2=O)N1c1ccccc1)c1nc2ccccc2[nH]1`, the TGI with NCI-H23 lung, in the assay with U251 CNS, in the assay on SK-MEL-5 melanoma, in the assay with NCI-H522 lung, with SK-OV-3 ovarian and with HOP-92 NSCLC was above 100 µM throughout. Also, the TGI in the assay with SR leukemia, in the assay on M19-MEL melanoma, with TK-10 renal, in the assay with UACC-257 melanoma, in the assay on SW-620 colon and with SNB-19 CNS was above 100 µM throughout. Further, the TGI with SK-MEL-2 melanoma, with DLD-1 colon, in the assay on K-562 leukemia, in the assay with SF-268 CNS, in the assay on DMS 273 small cell lung and in the assay with HCC-2998 colon was above 100 µM in each case. The compound further displayed a TGI in the assay with HCT-116 colon above 100 µM.
Consider `Oc1ccc(-c2nc3ccc(Br)cc3s2)cc1`, for which the TGI was 76 µM in the assay with NCI-H23 lung; 50.8 µM with U251 CNS; 60.2 µM with SK-MEL-5 melanoma; 22.9 µM in the assay on NCI-H522 lung; 51.4 µM in the assay on SK-OV-3 ovarian; 36.2 µM in the assay with SR leukemia. The TGI in the assay with TK-10 renal was 35.9 µM; in the assay with UACC-257 melanoma, 51.1 µM; with SW-620 colon, above 100 µM; with SNB-19 CNS, 85.2 µM; in the assay with SK-MEL-2 melanoma, 33.3 µM; with K-562 leukemia it was 73.1 µM. Besides, the TGI in the assay with SF-268 CNS is 57.4 µM; in the assay with HCT-116 colon, 64.1 µM; in the assay on NCI-H226 lung, 39.9 µM.
